In US12691234B2, “Methods employing gaseous nitric oxide for inhibiting tumor growth” (Beyond Air, Inc., priority 2019, dated 2026):

Legend:
CT-26 tumor = assay: Local gNO administration to CT26 tumor-bearing mice, primary tumor; assay type: in vivo, Balb/c mouse
Procedure: Test article treatment: Mice were first anesthetized by an intraperitoneal (i.p) injection of 100 mg/kg ketamine and 20 mg/kg xylazine hydrochloride solution. After 10 minutes, tumor-bearing mice were treated with the indicated dose of gNO.
In all protocols, the gas was delivered from NO in N2 cylinders. The outlet pressure was set to 2-3.5 bar using a pressure regulator that was connected directly to the cylinder.
In protocols that involve administration by needle injection, a silicone hose was connected directly to the pressure regulator on one end and to a manual or digital MFC on the other end. The flow was adjusted to 0.05 LPM-0.25 LPM. An additional silicone hose was connected to the flow controller as well as to a 23 G hypodermic needle. The needle was inserted horizontally into the center of each tumor.
Mice were inoculated subcutaneously with 5×10^5 CT-26 cells suspended in 100 μL Hank's Balanced Salt Solution (HBSS) into the low lateral side of the back. Local tumor growth was determined by measuring two mutually orthogonal tumor diameters with a caliper. The volume of the tumor was calculated using the formula: Vol=D1×D2×D2/2, where D1, D2 are two mutually orthogonal tumor diameters.
Air-1 is a female Balb/c mouse that was treated twice. On day 0 the tumor volume was 64.85 mm^3. […] This was followed by air administration for 4 minutes administered to the outer layer of the tumorusing a cap, such as shown in FIG. 11C.
NO-1 is a female Balb/c mouse and was treated once. […] Then, the skin was removed from the tumor, and the tumor was re-exposed to gNO via a perforated flask filled with gNO using the same parameters.
NO-2 is a male Balb/c mouse and was treated 3 times. On day 0 the tumor volume was 38.51 mm^3. Day 0—gNO at 50,000 ppm was administered for 3.8 minutes at a flow rate of 0.9 using a cap. Day 5: gNO at 10,000 ppm was administered for 30 minutes using a cap. Then, gNO was delivered intra-tumorally by a 23 G needle such as shown in FIG. 11B at 0.3 LPM for another 10 minutes, using an intra-tumoral channel. The tip of the needle was directed at the outside area. Day 11: gNO at 10,000 ppm was delivered to the tumor for 5 minutes and at a flow rate of 0.3 LPM, using a 23 G needle and an intra-tumoral channel.
In an additional set of experiments, aluminum disposable gas cylinders were used. A flow meter was connected directly to the cylinder, to which a gas delivery tubing was connected. The tumor was inserted into a small flask trough a 1 cm hole and a plastic holder. A small hole at the bottom of the flask enabled to lower the pressure inside the flask. […]

CT26 challenge tumor = assay: Challenge assay in CT26 tumor-bearing mice; assay type: in vivo, mouse
Procedure: Challenge tumor inoculation: Up to 21 days after gas treatment was applied to the primary tumor, the appropriate cancer cell suspensions were prepared as described herein and inoculation of cells was repeated on the contralateral flank of the mice. Administration was performed as soon as possible following cell suspension preparation and after manual shaking prior to withdrawal of the cell suspension.
The percentage of challenge tumor take was monitored 2-3 times a week by taking a look at the inoculated site and touching this area to look for small tumors that are not yet visible. Naïve mice inoculated with tumor cells for the first time served as an internal control.
Mixing of cells was performed immediately before injection to minimize leukocyte interactions within the syringe. Mice were observed 2-3 times a week and tumor development was determined by caliper measurements of tumor dimensions as described herein. Splenocytes were extracted from a CT26 tumor-bearing mouse, which was previously treated with 25,000 ppm NO for two 15-minute courses. This mouse was re-inoculated with CT26 cancer cells 12 days post treatment. […] Tumor take of visible outgrowths was monitored 2 to 3 times per week by taking a look at the inoculated site and touching this area to look for small tumors that are not yet visible Naïve mice inoculated s.c. with 500,000 CT26 served as the control group. […]

4T1 cells = assay: Third inoculation with 4T1 breast cancer cells in CT26 gNO-immunized mouse; assay type: in vivo, Balb/c mouse; details: mouse treated with 25,000 ppm NO twice 15 minutes; 4T1 inoculated 30 days post second inoculation
Procedure: Balb/c mouse was inoculated with 500,000 CT26 cells to the right flank. CT26 tumor was treated with 25,000 ppm NO for 15 minutes at a flow rate of 0.25 LPM. Seven days post gas treatment, this mouse was treated once again using the same protocol. Twelve days post the first NO treatment, this mouse was re-inoculated with 500,000 CT26 cells to the left flank. A third inoculation of cancer cells was performed 30 days post the second cell inoculation, using mouse breast cancer cells, was performed as well and the growth of a third inoculation of breast cancer cells, 4T1 cells. Forty-four days post challenge assay start (second inoculation), this mouse was sacrificed, and his spleen was harvested and preserved in RPMI-based media at 4° c. until processing of it. The spleen was processed into a sterile 35 mm culture dish containing 5 ml of RPMI-based media. Any extra connective tissues or fat was trimmed from the spleen. The flat end of a plunger was used to mince the spleen by crushing the spleen to release the splenocytes. A 70 μm strainer was primed by passing 1 ml of PBS through it and placed on a sterile 50 mL conical tube. The pellet was collected and transferred through the strainer via a 5 mL serological pipette. The strainer was washed with 3 mL of RPMI-based media. Tube will be centrifuged at 300×g for 10 minutes. […]

`[N]=O` [gNO, nitric oxide] was tested, and the “tumor in photographs after treatment” value (CT-26 tumor; 10,000 ppm gNO in flask, 0.9 LPM, 20 minutes, up to 14 days post treatment) was “the tumor was destructed”, the mice cured (CT-26 tumor; 25,000 ppm gNO intra-tumoral, 15 minutes, 0.25 LPM, repeated a week later, 44 days post the first treatment) was 50% and the “tumor 9 days after treatment” value (CT-26 tumor; 200,000 ppm gNO for 2 seconds, 0.01 LPM) was “the tumor disappeared”. The “size of air-treated tumor relative to gNO-treated tumors” value (CT-26 tumor; mice NO-1 and NO-2, 10,000-50,000 ppm gNO, 12 days post treatment 1) was “more than times bigger”, the “rejection of secondary CT26 tumor cell inoculation” value (CT26 challenge tumor; 25,000 ppm 30 minutes, 50,000 ppm 10 minutes or 200,000 ppm 2-35 seconds, end of follow-up) was “all NO-treated mice rejected a secondary CT26 tumor cell inoculation” and the “tumor development after CT26 re-inoculation” value (CT26 challenge tumor; 25,000 ppm NO two 15-minute courses, re-inoculated 12 days post treatment, 44 days after challenge) was “no signs of tumor development were detected”. The “growth of a third inoculation of breast cancer cells” value (4T1 cells) was “inhibited”.
